Experimental data: patent US20250263376A1, “(E)-N-CINNAMOYLAMINOALKANOLS WITH MELANOGENESIS INHIBITORY ACTIVITY” (Uniwersytet Jagiellonski, priority 2024, published 2025)

Legend:
tyrosinase from mushroom [1] = target: T1, tyrosinase from mushroom (Agaricus bisporus, UniProt C7FF04); experiment: Inhibition of commercial mushroom tyrosinase, substrate L-DOPA; format: biochemical; conditions: 500 μM; read-out: Tyrosinase inhibition with L-DOPA [%]
Description: (§1) Studies on the Inhibition of the Activity of Commercial Tyrosinase from Mushroom (Sigma: T3824)
(§2) The following substrates were used for the enzymatic reaction: L-tyrosine and L-3,4-dihyroxyphenylalanine (L-DOPA). Both substrates were used in independent experiments. According to the literature, the use of L-DOPA enables the assessment of tyrosinase diphenolase activity, and L-tyrosine—the tyrosinase monophenolase activity. The determinations were performed in 96-well plates, in each well there was placed: 170 μL or 127.5 μL of 50 mM phosphate buffer (pH=6.8) with tyrosinase (1U/well or 3U/well) and 10 μL of a solution of the tested compound in DMSO (the final concentration in the well was 500 μM, 250 μM or 125 μM). The negative control used 10 u L of pure solvent (DMSO). To initiate the reaction, an appropriate substrate was added: L-tyrosine (62.5 μL of solution in phosphate buffer) or L-DOPA (20 μL of solution in phosphate buffer). After a 25-minute incubation, the absorbance was measured at 475 nm using a microplate reader. The percentage of inhibition of tyrosinase activity was calculated using the formula: [(AC−AT)/[…], where AC—is the absorbance of the negative control, AT—is the absorbance of the sample containing the tested compound.

E. coli WP2 = experiment: Ames microplate test, E. coli WP2; conditions: without S9;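 also: bacteria exposed to compound for 90 min at 37 °C in 24-well plates, then transferred with indicator medium to 384-well plates and incubated 48 h before yellow well counting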
Description: The study used the Ames microplate test (Ames MPF™ Penta 2 by Xenometrix, Allschwil, Switzerland). Growth medium, exposure medium, indicator medium, positive controls, hepatic microsomal fraction, NADP, glucose-6-phosphate, Salmonella typhimurium and Escherichia coli strains were components of the purchased experimental kit. Bacteria were grown overnight in growth medium. They were then exposed to the test compound at the appropriate concentration in exposure medium without or with the rat microsomal fraction S9 in 24-well plates for 90 min at 37° C. with shaking. Then, indicator medium was added to the wells and pipetted into 384-well plates, which were incubated for 48 hours at 37° C. without shaking. Results were assessed by counting the wells in which the medium turned yellow for each experimental condition.

tyrosinase from mushroom [2] = target: T1, tyrosinase from mushroom; experiment: Inhibition of commercial mushroom tyrosinase, substrate L-tyrosine; format: biochemical; conditions: 500 μM; read-out: Tyrosinase inhibition with L-tyrosine [%]
Description: as §1, §2

[3] = Lipophilicity coefficient RM0 by reversed phase thin layer chromatography; format: physicochemical; conditions: RP-18 TLC, methanol/phosphate buffer pH=7.4
Description: Confirmation of the identity and purity of the obtained compounds consisted in the registration and interpretation of 1H NMR and 13C NMR spectra (the spectra were recorded using an ECZR 500 MHZ (JEOL) series FT-NMR spectrophotometer), as well as the registration and interpretation of LC-MS spectra (the spectra were recorded using Acquita UPLC system (Waters) coupled with a Waters TQD mass spectrometer). The melting point was measured using the open capillary method in the IA9300 device (Electrothermal). The lipophilicity coefficient RM0 was determined by reversed phase thin layer chromatography. In the study, aluminum plates 20×20 cm covered with modified silica gel RP-18 F254 (Merck) were used as the solid phase. The mobile phase consisted of solutions of methanol and 100 mM phosphate buffer (pH=7.4), characterized by a variable methanol content ranging from 95 to 65% (v/v). The tested compounds were dissolved in methanol to obtain solutions with a concentration of 1 mg/mL. Then, […] of the solutions prepared in this way were transferred to the starting line on aluminum plates, which were then placed in chromatographic chambers previously saturated with mobile phase vapors for at least 1 hour. All activities, including the development of chromatograms, were carried out at room temperature. After developing the chromatograms to approximately 1-2 cm from the end of the plate, the plates were dried and then the distance traveled by the tested compounds was visualized under UV light (λ=254 nm). The experiment was performed in duplicate for the specified conditions. For all samples, Rf was calculated according to the formula Rf=a/b, where a—the distance traveled by the tested compound, b—the distance traveled by the mobile phase. Then, the RM parameter was calculated for all samples according to the formula RM=log (1/Rf−1), obtaining a linear relationship between the RM values and the methanol concentration in the mobile phase. The log P coefficient was also calculated using the following computer programs: ACD/ChemSketch 2020.1.2 and ChemDraw 20.0.0.41.

S. typhimurium TA1537 = experiment: Ames microplate test, TA1537; format: cell-based, Salmonella typhimurium; conditions: without S9
Description: (§3) Bacteria were grown overnight in growth medium.

S. typhimurium TA98 = experiment: Ames microplate test, TA98; format: cell-based, Salmonella typhimurium; conditions: without S9
Description: as §3

S. typhimurium TA100 = experiment: Ames microplate test, TA100; format: cell-based, Salmonella typhimurium; conditions: without S9
CHO-K1 cells = experiment: Cytotoxicity (MTT) in CHO-K1 cells before the micronucleus test; format: cell-based, Chinese hamster; conditions: 24 hours
Description: The assay was performed using a Chinese hamster ovary cell line (CHO-K1) purchased from the American Type Culture Collection (ATCC). The cells were cultured in F-12K medium with the addition of 10% fetal bovine serum (FBS) and antibiotics (streptomycin/penicillin) in an incubator at 37° C. and 5% CO2 concentration). Before the actual micronucleus test, a cytotoxicity assessment was performed to ensure that the actual test was performed only at safe concentrations. For this purpose, cells were transferred to 96-well plates and incubated with the tested compounds for 24 hours. After this time, the MTT test was performed and cell viability was assessed in comparison to the control group (cells cultured with DMSO at the same concentration as in the case of the tested samples).

[4] = tested on: B16-F10 murine melanoma cell line; experiment: Cytotoxicity (MTT) in B16-F10 murine melanoma cells; format: cell-based; conditions: 48 h
Description: Cytotoxicity Assessment in the B16-F10 Murine Melanoma Cell Line (ATTC CRL-6745)—Preliminary Safety Assessment for Subsequent Studies
In order to determine safe doses of compounds for testing the inhibition of melanogenesis in a murine melanoma cell line, cytotoxicity tests were performed. Cytotoxicity was determined by the colorimetric method using MTT ([3-(4,5-dimethyl-2-thiazolyl)-2,5-diphenyl-2H-tetrazolium bromide, Sigma M5655). For this purpose, cells were transferred to 96-well plates in an amount of 5000/well. After 24 h of culture in an incubator in F10-Ham medium with 1% FBS, the tested compounds at various concentrations were added to the wells together with fresh medium. DMSO was added to the medium in a negative control. The MTT test was performed after further culture for 48 h. Then the medium was removed and the formed formazan crystals were dissolved in DMSO. The absorbance was measured at 570 nm in a plate reader and the result was compared to the control (DMSO), which was 100%. The percentage of viability was calculated using the formula: [AT/AC*100], where AT is the absorbance of the test sample, AC—absorbance of the control sample.

S. typhimurium TA1535 = experiment: Ames microplate test, TA1535; conditions: without S9;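 also: bacteria exposed 90 min at 37 °C in exposure medium, then 48 h in indicator medium in 384-well plates, yellow (revertant) wells counted per condition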

T1 sequence (C7FF04 2-392): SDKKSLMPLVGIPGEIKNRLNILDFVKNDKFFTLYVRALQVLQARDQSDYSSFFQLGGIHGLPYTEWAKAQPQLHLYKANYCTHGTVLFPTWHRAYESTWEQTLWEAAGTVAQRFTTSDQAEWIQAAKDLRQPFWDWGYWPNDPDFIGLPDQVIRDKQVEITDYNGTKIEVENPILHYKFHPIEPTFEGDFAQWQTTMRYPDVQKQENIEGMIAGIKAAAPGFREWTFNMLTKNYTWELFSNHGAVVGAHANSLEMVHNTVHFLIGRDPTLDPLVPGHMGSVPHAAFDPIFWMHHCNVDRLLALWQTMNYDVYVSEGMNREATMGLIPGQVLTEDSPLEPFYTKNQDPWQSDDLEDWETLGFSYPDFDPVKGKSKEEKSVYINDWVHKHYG
T1 sequence (G1K3P4 entry or part of it, further chain): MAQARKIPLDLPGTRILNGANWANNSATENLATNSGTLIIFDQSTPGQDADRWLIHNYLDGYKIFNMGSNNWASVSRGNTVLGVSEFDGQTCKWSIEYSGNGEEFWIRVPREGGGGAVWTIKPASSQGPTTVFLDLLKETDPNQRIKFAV

inhibition at 500 µM (tyrosinase from mushroom [1]) [%] | inhibition at 500 µM (tyrosinase from mushroom [2]) [%] | RM0 [3] | Compound | Cytotoxicity study in B16F10 cells, % viability ([4]; 150 μM) [%] | Cytotoxicity study in B16F10 cells, % viability ([4]; 200 μM) [%] | Cytotoxicity study in B16F10 cells, % viability ([4]; 250 μM) [%] | further results
0.21 ± 5.64 | 14.6 ± 1.63 | 3.08 | CCC(CO)NC(=O)/C=C/c1ccc(Cl)cc1Cl (stereo not drawn) [H-285/20, (2E)-3-(2,4-dichlorophenyl)-N-(1-hydroxybutan-2-yl)prop-2-enamide] | 84.2 | 74.8 | 24.6 | –
7.23 ± 0.81 | 19.2 ± 3.44 | 2.80 | O=C(/C=C/c1ccc(Cl)cc1Cl)N1CCC(O)CC1 [H-310/20, (2E)-3-(2,4-dichlorophenyl)-1-(4-hydroxypiperidin-1-yl)prop-2-en-1-one] | 89.5 | 100.4 | 93.0 | –
5.8 ± 3.04 | 24.4 ± 8.05 | 3.08 | CCC(O)CNC(=O)/C=C/c1ccc(Cl)cc1Cl (stereo not drawn) [H-320/21, (2E)-3-(2,4-dichlorophenyl)-N-(2-hydroxybutyl)prop-2-enamide] | 101.7 | 90.8 | 33.9 | –

Compound | inhibition at 500 µM (tyrosinase from mushroom [1]) [%] | inhibition at 500 µM (tyrosinase from mushroom [2]) [%] | RM0 [3] | Cytotoxicity study in B16F10 cells, % viability ([4]; 150 μM) [%] | Cytotoxicity study in B16F10 cells, % viability ([4]; 200 μM) [%] | Cytotoxicity study in B16F10 cells, % viability ([4]; 250 μM) [%] | further results
CC(CO)NC(=O)/C=C/c1ccc(Cl)cc1 (stereo not drawn) [Compound A-102, (2E)-3-(4-chlorophenyl)-N-(1-hydroxypropan-2-yl)prop-2-enamide] | 53 ± 1.99 | 75.5 ± 1.8 | 2.12 | 80.6 | 83.5 | 75.7 | Increase in the number of yellow wells compared to the reference level, E. coli WP2 (E. coli WP2; 0.5 mM): 0.48; Increase in the number of yellow wells compared to the reference level, E. coli WP2 (E. coli WP2; 1.0 mM): 1.03; Increase in the number of yellow wells compared to the reference level, E. coli WP2 (E. coli WP2; 2.0 mM): 0.79; Increase in the number of yellow wells compared to the reference level, TA1537 (S. typhimurium TA1537; 0.5 mM): 0.33; Increase in the number of yellow wells compared to the reference level, TA1537 (S. typhimurium TA1537; 1.0 mM): 0.00; Increase in the number of yellow wells compared to the reference level, TA1537 (S. typhimurium TA1537; 2.0 mM): 1.00; Increase in the number of yellow wells compared to the reference level, TA98 (S. typhimurium TA98; 0.5 mM): 0.24; Increase in the number of yellow wells compared to the reference level, TA98 (S. typhimurium TA98; 1.0 mM): 0.24; Increase in the number of yellow wells compared to the reference level, TA98 (S. typhimurium TA98; 2.0 mM): 0.35; Increase in the number of yellow wells compared to the reference level, TA100 (S. typhimurium TA100; 0.5 mM): 1.08; Increase in the number of yellow wells compared to the reference level, TA100 (S. typhimurium TA100; 1.0 mM): 0.75; Increase in the number of yellow wells compared to the reference level, TA100 (S. typhimurium TA100; 2.0 mM): 0.92; % Viability [mean], CHO-K1 (CHO-K1 cells; 100 μM): 84.7%; % Viability [mean], CHO-K1 (CHO-K1 cells; 150 μM): 69.9%; % Viability [mean], CHO-K1 (CHO-K1 cells; 200 μM): 87.2%; Increase in the number of yellow wells compared to the reference level, TA1535 (S. typhimurium TA1535; 0.5 mM): 0.55; Increase in the number of yellow wells compared to the reference level, TA1535 (S. typhimurium TA1535; 1.0 mM): 0.14; Increase in the number of yellow wells compared to the reference level, TA1535 (S. typhimurium TA1535; 2.0 mM): 0.89
